ChEMBL document CHEMBL1201862, “PubChem BioAssay data set” (2004)
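96-well plates; 48 h exposure; 5 concentrations. Endpoints by linear interpolation between flanking doses. Not reached: highest tested concentration assigned. GI50 is the concentration that inhibits growth by half.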 The source made the active and inactive calls. Rule as the data show it: active = GI50 up to about 1.1 µM and inactive = higher.

What was measured:
Test in all cases: inhibition of tumour cell growth, NCI panel, 48 h
[1] = test system: SNB-19
[2] = test system: OVCAR-4
[3] = test system: SNB-75
[4] = test system: MOLT-4
[5] = test system: TK-10
[6] = test system: HT-29
[7] = test system: DMS-273
[8] = test system: NCI-H23
[9] = test system: HOP-62
[10] = test system: SR
[11] = test system: A498
[12] = test system: COLO 205
[13] = test system: RPMI-8226
[14] = test system: IGROV-1
[15] = test system: RXF 393
[16] = test system: HCC 2998
[17] = test system: NCI/ADR-RES
[18] = test system: PC-3
[19] = test system: DU-145
[20] = test system: BT-549

| SMILES | GI50 [1] | GI50 [2] | GI50 [3] | GI50 [4] | GI50 [5] | GI50 [6] | GI50 [7] | GI50 [8] | GI50 [9] | GI50 [10] | GI50 [11] | GI50 [12] | GI50 [13] | GI50 [14] | GI50 [15] | GI50 [16] | GI50 [17] | GI50 [18] | GI50 [19] | GI50 [20] |
| --- | --- | --- | --- | --- | --- | --- | --- | --- | --- | --- | --- | --- | --- | --- | --- | --- | --- | --- | --- | --- |
| COCN1COCN/C1=N\C#N | > 100 µM (inactive) | 75.5 µM (inactive) | > 100 µM (inactive) | > 100 µM (inactive) | > 100 µM (inactive) | > 100 µM (inactive) | 98.2 µM (inactive) | > 100 µM (inactive) | > 100 µM (inactive) | 20.9 µM (inactive) | > 100 µM (inactive) | 41 µM (inactive) | > 100 µM (inactive) | > 100 µM (inactive) | 83.2 µM (inactive) | > 100 µM (inactive) | – | – | – | – |
| CC(Oc1ccc(OCC2CCCCC2)cc1)C(=O)NCc1ccco1 (stereo not given) | 74.3 µM (inactive) | 56.5 µM (inactive) | 25.6 µM (inactive) | 34.9 µM (inactive) | 84.7 µM (inactive) | 22.1 µM (inactive) | 25.5 µM (inactive) | – | – | – | 24.7 µM (inactive) | – | – | 43.7 µM (inactive) | 22.6 µM (inactive) | 36.6 µM (inactive) | – | – | – | – |
| O=C1CC(c2c(-c3ccccc3)[nH]c3ccccc23)C(=O)N1 (stereo not given) | – | > 100 µM (inactive) | 35.4 µM (inactive) | > 100 µM (inactive) | > 100 µM (inactive) | > 100 µM (inactive) | > 100 µM (inactive) | > 100 µM (inactive) | > 100 µM (inactive) | – | 90.2 µM (inactive) | – | > 100 µM (inactive) | > 100 µM (inactive) | > 100 µM (inactive) | > 100 µM (inactive) | – | – | – | – |
| CN1C(=O)N(C)C(N2CCCC2)c2c1nc1ccccn1c2=O (stereo not given) | 99.5 µM (inactive) | 58.1 µM (inactive) | 45.9 µM (inactive) | > 100 µM (inactive) | > 100 µM (inactive) | > 100 µM (inactive) | 43.4 µM (inactive) | > 100 µM (inactive) | > 100 µM (inactive) | 34.8 µM (inactive) | 34.8 µM (inactive) | > 100 µM (inactive) | 88.7 µM (inactive) | > 100 µM (inactive) | 49 µM (inactive) | 76.9 µM (inactive) | – | – | – | – |
| COC(=O)C(=O)Cc1nc2ccccc2s1 | > 100 µM (inactive) | > 100 µM (inactive) | > 100 µM (inactive) | > 100 µM (inactive) | > 100 µM (inactive) | > 100 µM (inactive) | > 100 µM (inactive) | > 100 µM (inactive) | > 100 µM (inactive) | > 100 µM (inactive) | > 100 µM (inactive) | > 100 µM (inactive) | – | > 100 µM (inactive) | > 100 µM (inactive) | > 100 µM (inactive) | – | – | – | – |
| COC(=O)C(=O)C(C(=O)C=C(C)C)C(=O)C(=O)Nc1cccc(C(C)=O)c1 (stereo not given) | > 100 µM (inactive) | > 100 µM (inactive) | > 100 µM (inactive) | > 100 µM (inactive) | > 100 µM (inactive) | > 100 µM (inactive) | > 100 µM (inactive) | > 100 µM (inactive) | > 100 µM (inactive) | > 100 µM (inactive) | > 100 µM (inactive) | > 100 µM (inactive) | > 100 µM (inactive) | > 100 µM (inactive) | > 100 µM (inactive) | > 100 µM (inactive) | – | – | – | – |
| Cc1ccc(S(=O)(=O)NC(C)C(=O)O)cc1 (stereo not given) | > 100 µM (inactive) | > 100 µM (inactive) | > 100 µM (inactive) | > 100 µM (inactive) | > 100 µM (inactive) | > 100 µM (inactive) | > 100 µM (inactive) | > 100 µM (inactive) | – | – | > 100 µM (inactive) | > 100 µM (inactive) | > 100 µM (inactive) | > 100 µM (inactive) | > 100 µM (inactive) | > 100 µM (inactive) | – | – | – | – |
| CC(CCCOC(c1ccccc1)(c1ccccc1)c1ccccc1)OC(=O)Nc1cc([N+](=O)[O-])cc([N+](=O)[O-])c1 (stereo not given) | 57.5 µM (inactive) | 37.5 µM (inactive) | 21.3 µM (inactive) | 28.8 µM (inactive) | – | 28.2 µM (inactive) | 33.7 µM (inactive) | 29 µM (inactive) | 27.4 µM (inactive) | 38.5 µM (inactive) | 22.8 µM (inactive) | – | 32.5 µM (inactive) | 30.9 µM (inactive) | 43.3 µM (inactive) | 35.6 µM (inactive) | – | – | – | – |
| O=C1C=CC(S(=O)(=O)C2=C/C(=C/Nc3ccc(Cl)cc3)C(=O)C=C2)=C/C1=C/Nc1ccc(Cl)cc1 | > 100 µM (inactive) | > 100 µM (inactive) | 47.6 µM (inactive) | > 100 µM (inactive) | > 100 µM (inactive) | > 100 µM (inactive) | > 100 µM (inactive) | > 100 µM (inactive) | > 100 µM (inactive) | > 100 µM (inactive) | > 100 µM (inactive) | > 100 µM (inactive) | > 100 µM (inactive) | > 100 µM (inactive) | > 100 µM (inactive) | > 100 µM (inactive) | – | – | – | – |
| FC(F)(F)C12C34C=CC5(CCC6(C=CC1(CC3)O6)C52C(F)(F)F)O4 (stereo not given) | > 100 µM (inactive) | > 100 µM (inactive) | – | > 100 µM (inactive) | > 100 µM (inactive) | > 100 µM (inactive) | > 100 µM (inactive) | > 100 µM (inactive) | > 100 µM (inactive) | > 100 µM (inactive) | > 100 µM (inactive) | > 100 µM (inactive) | – | > 100 µM (inactive) | 93.5 µM (inactive) | > 100 µM (inactive) | – | – | – | – |
| Cn1c(N)[n+](C(=O)OCc2ccccc2)c(=O)c2c1ncn2C(=O)OCc1ccccc1 | 30.8 µM (inactive) | 65.2 µM (inactive) | 24 µM (inactive) | > 100 µM (inactive) | 46.7 µM (inactive) | > 100 µM (inactive) | > 100 µM (inactive) | 46.2 µM (inactive) | 27 µM (inactive) | – | 30.8 µM (inactive) | > 100 µM (inactive) | > 100 µM (inactive) | > 100 µM (inactive) | – | > 100 µM (inactive) | – | – | – | – |
| CCOC(=O)c1c(NNc2ccccc2)nc2ccccc2c1-c1ccccc1 | 41.8 µM (inactive) | 37.5 µM (inactive) | 36.8 µM (inactive) | 12.8 µM (inactive) | 80.4 µM (inactive) | 32.3 µM (inactive) | 43.2 µM (inactive) | 19.5 µM (inactive) | 23.8 µM (inactive) | 21.4 µM (inactive) | > 100 µM (inactive) | 30 µM (inactive) | 11.9 µM (inactive) | 42.4 µM (inactive) | 42 µM (inactive) | 55 µM (inactive) | – | – | – | – |
| CC1C(=O)OC2CC[N+]3([O-])CC=C(COC(=O)C(C)(O)C1(C)O)C23 (stereo not given) | > 100 µM (inactive) | > 100 µM (inactive) | > 100 µM (inactive) | > 100 µM (inactive) | > 100 µM (inactive) | > 100 µM (inactive) | – | > 100 µM (inactive) | > 100 µM (inactive) | 95.7 µM (inactive) | > 100 µM (inactive) | > 100 µM (inactive) | > 100 µM (inactive) | > 100 µM (inactive) | > 100 µM (inactive) | > 100 µM (inactive) | > 100 µM (inactive) | > 100 µM (inactive) | > 100 µM (inactive) | > 100 µM (inactive) |
| CCCC(=O)NC(Nc1ccc(S(=O)(=O)Nc2nc(C)cc(C)n2)cc1)(C(F)(F)F)C(F)(F)F | > 100 µM (inactive) | > 100 µM (inactive) | > 100 µM (inactive) | > 100 µM (inactive) | > 100 µM (inactive) | > 100 µM (inactive) | – | > 100 µM (inactive) | > 100 µM (inactive) | > 100 µM (inactive) | > 100 µM (inactive) | > 100 µM (inactive) | > 100 µM (inactive) | > 100 µM (inactive) | > 100 µM (inactive) | > 100 µM (inactive) | > 100 µM (inactive) | > 100 µM (inactive) | > 100 µM (inactive) | > 100 µM (inactive) |
| C=C1CC2(CC(c3ccccc3C)OC(c3ccccc3C)C2)OC1=O (stereo not given) | 16.3 µM (inactive) | 2.27 µM (inactive) | 3.23 µM (inactive) | 2.77 µM (inactive) | 1.74 µM (inactive) | 1.82 µM (inactive) | – | 1.96 µM (inactive) | 10.7 µM (inactive) | 2.15 µM (inactive) | 8.99 µM (inactive) | 1.9 µM (inactive) | 0.473 µM (active) | 1.69 µM (inactive) | 2.29 µM (inactive) | 2.25 µM (inactive) | 3.48 µM (inactive) | 2.21 µM (inactive) | 12.1 µM (inactive) | 1.92 µM (inactive) |
| N#C/N=C(/N)NCc1ccccc1 | – | > 100 µM (inactive) | > 100 µM (inactive) | > 100 µM (inactive) | > 100 µM (inactive) | > 100 µM (inactive) | > 100 µM (inactive) | > 100 µM (inactive) | > 100 µM (inactive) | > 100 µM (inactive) | > 100 µM (inactive) | > 100 µM (inactive) | > 100 µM (inactive) | > 100 µM (inactive) | – | 23.4 µM (inactive) | – | – | – | – |
| COc1cc(OC)cc(Oc2nc3ccccc3nc2C(F)(F)F)c1 | 53.7 µM (inactive) | > 100 µM (inactive) | 21.9 µM (inactive) | > 100 µM (inactive) | > 100 µM (inactive) | > 100 µM (inactive) | – | > 100 µM (inactive) | 19.3 µM (inactive) | 6.1 µM (inactive) | 22.9 µM (inactive) | > 100 µM (inactive) | > 100 µM (inactive) | 5.89 µM (inactive) | 19.5 µM (inactive) | > 100 µM (inactive) | > 100 µM (inactive) | 89.7 µM (inactive) | > 100 µM (inactive) | > 100 µM (inactive) |
